Measured values reported in ChEMBL document CHEMBL1201862, “PubChem BioAssay data set” (2004).
The source made the active and inactive calls.

Columns and labels:
[1] = HEK293T cytotoxicity, dose response, cytotoxicity control for miR-122 modulator project, cell-based, inhibitor set, cherry-pick, set 2 (AID 720697); assay type: functional
[2] = NIH:OVCAR-3 ovarian cancer cell cytotoxicity, dose response, PAX8 inhibitor project, plate reader, dry powder samples (AID 743044); assay type: functional, cell-based
[3] = A2780 ovarian cancer cell cytotoxicity, dose response, cytotoxicity control, plate reader, dry powder samples (AID 743046); assay type: functional, cell-based
[4] = target: Paired box protein Pax-8 (Homo sapiens, UniProt Q06710); assay: inhibitors of PAX8-driven TPO luciferase reporter, dose response, RMG-I cells, cherry-pick (AID 687027); assay type: functional, cell-based;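 further: luciferase reporter driven by Pax8 target thyroperoxidase promoter measured by SteadyGlo luminescence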
Sequence of Paired box protein Pax-8 (Q06710 whole entry, the tested form may be a part): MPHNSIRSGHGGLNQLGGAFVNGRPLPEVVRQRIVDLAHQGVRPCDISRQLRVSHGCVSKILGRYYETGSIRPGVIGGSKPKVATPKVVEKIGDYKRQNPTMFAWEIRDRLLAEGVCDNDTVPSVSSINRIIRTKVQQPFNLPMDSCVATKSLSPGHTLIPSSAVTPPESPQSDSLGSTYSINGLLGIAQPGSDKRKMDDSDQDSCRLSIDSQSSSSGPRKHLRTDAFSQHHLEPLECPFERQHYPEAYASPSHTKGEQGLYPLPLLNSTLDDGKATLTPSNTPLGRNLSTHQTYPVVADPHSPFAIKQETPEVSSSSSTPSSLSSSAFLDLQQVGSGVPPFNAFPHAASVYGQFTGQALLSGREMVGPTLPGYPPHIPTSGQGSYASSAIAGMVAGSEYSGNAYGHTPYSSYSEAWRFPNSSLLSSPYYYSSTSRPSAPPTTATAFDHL

[5] = CEM21 lymphoblast cell cytotoxicity, dose response, cytotoxicity control for viral fusion inhibitor project, CellTiter-Glo luminescence, cherry-picked (AID 652042); assay type: functional, cell-based;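 further: potency for signal decrease meaning cytotoxicity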
[6] = inhibitors of HIV Env-driven cell fusion, dose response, cherry-pick (AID 652057); assay type: functional, cell-based
[7] = inhibitors of PGC1a acetylation in cells, dose response, cell-based, cherry-picked samples (AID 720514); assay type: functional;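 further: potency may reflect raised or lowered acetylation signal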
[8] = P. falciparum Dd2 growth inhibitors, dose response, SYBR Green, cherry-picked samples (AID 1159567); assay type: functional, cell-based
[9] = target: COUP transcription factor 2 (Homo sapiens, UniProt P24468); assay: Luminescence-based cell-based high throughput dose response assay to identify inhibitors of COUP-TFII (NR2F2).; assay type: functional;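 further: HEK293 cells transiently cotransfected with COUP-TFII expression vector and reporter; luciferase reporter luminescence driven by COUP-TFII from the pX2-168 reporter plasmid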
Sequence of COUP transcription factor 2 (P24468 whole entry): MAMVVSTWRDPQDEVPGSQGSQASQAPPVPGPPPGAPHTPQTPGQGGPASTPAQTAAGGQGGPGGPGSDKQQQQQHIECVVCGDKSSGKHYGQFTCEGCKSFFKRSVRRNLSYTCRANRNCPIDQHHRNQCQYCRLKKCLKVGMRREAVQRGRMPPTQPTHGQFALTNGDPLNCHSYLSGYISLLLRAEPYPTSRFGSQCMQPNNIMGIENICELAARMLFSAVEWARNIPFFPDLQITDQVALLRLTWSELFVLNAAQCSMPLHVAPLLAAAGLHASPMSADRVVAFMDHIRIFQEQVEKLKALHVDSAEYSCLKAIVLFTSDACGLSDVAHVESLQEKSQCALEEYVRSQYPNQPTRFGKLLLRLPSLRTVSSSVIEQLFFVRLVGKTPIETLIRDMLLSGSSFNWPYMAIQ

[10] = MITF Orthogonal Assay: SK-MEL-5 CTG Assay Measured in Cell-Based System Using Plate Reader - 2084-02_Inhibitor_Dose_DryPowder_Activity_Set7.; assay type: functional
[11] = TRPM1 promoter luciferase reporter signal decrease, dose response, MITF inhibitor project, cell-based, SK-MEL-5, dry powder, set 8 (AID 624430); assay type: functional
[12] = MITF: Counter assay: A375 proliferation Measured in Cell-Based System Using Plate Reader - 2084-03_Inhibitor_Dose_DryPowder_Activity_Set8.; assay type: functional; details: A-375
[13] = cytotoxicity in OVCAR8 ovarian cancer cells, dose response, PAX8 project, cell-based, plate reader, dry powder samples (AID 743197); assay type: functional; details: OVCAR-8
[14] = T. cruzi growth inhibition in host cells, dose response, cell-based, plate reader, dry powder, set 2 (AID 652275); assay type: functional
[15] = target: Albumin (Bos taurus, UniProt P02769); assay: Counterscreen for inhibitors of T-cell receptor (TCR)-CD3 interaction: Fluorescence-based biochemical high throughput dose response assay to identify inhibitors of T-cell receptor (TCR)-CD3 interaction using a TAMRA-labeled BSA probe.; assay type: functional
Sequence of Albumin (P02769 whole entry): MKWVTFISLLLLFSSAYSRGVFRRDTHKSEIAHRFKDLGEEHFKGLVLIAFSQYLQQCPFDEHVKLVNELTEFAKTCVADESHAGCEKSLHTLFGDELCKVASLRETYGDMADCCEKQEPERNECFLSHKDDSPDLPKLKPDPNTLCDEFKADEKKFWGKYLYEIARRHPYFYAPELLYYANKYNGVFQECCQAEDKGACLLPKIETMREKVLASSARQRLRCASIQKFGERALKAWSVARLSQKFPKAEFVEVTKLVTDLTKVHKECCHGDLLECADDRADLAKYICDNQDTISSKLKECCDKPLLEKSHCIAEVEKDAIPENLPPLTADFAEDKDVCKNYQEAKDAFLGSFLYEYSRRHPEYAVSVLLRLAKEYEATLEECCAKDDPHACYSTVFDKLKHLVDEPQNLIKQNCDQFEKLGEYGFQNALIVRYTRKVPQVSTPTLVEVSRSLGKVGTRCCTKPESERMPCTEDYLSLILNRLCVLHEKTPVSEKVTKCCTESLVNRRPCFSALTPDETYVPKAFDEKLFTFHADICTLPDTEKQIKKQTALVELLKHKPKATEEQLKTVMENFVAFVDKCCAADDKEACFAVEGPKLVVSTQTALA

[16] = ADAM10 inhibitors, peptide cleavage, dose response, biochemical, QFRET (AID 743254);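 further: ADAM10 enzyme with the DM2 quenched FRET peptide as substrate; EDANS fluorescence gain as the protease cuts the substrate; inhibitor potency against ADAM10 proteolytic activity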
[17] = target: Disintegrin and metalloproteinase domain-containing protein 17 (Homo sapiens, UniProt P78536); assay: ADAM17 protease inhibitors, dose response, counter-screen for ADAM10 exosite inhibitor project, biochemical, quenched FRET substrate (AID 743253)
Sequence of Disintegrin and metalloproteinase domain-containing protein 17 (P78536 whole entry, the tested form may be a part): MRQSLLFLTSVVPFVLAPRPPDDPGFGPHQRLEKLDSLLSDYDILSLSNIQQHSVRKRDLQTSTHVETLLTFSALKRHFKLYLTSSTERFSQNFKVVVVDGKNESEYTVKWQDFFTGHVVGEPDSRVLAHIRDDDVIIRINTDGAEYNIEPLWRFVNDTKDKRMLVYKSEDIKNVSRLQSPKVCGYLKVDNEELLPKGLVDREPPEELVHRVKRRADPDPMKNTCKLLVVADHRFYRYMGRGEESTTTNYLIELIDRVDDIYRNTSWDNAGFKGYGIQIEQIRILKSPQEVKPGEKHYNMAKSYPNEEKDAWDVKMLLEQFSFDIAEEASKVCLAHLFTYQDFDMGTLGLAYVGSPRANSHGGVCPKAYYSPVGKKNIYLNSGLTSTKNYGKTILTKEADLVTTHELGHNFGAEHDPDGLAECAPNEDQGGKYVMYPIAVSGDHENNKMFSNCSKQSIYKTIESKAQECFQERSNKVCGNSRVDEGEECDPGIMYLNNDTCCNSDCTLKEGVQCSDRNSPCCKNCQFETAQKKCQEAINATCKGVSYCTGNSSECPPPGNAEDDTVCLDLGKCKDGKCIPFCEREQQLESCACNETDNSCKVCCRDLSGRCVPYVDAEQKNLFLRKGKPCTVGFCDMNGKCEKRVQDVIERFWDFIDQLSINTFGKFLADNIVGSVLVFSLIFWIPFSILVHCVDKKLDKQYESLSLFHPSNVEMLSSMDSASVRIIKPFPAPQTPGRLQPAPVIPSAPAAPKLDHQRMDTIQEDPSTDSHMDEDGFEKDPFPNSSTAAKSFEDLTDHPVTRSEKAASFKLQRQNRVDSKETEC

Q: With CCNC(=O)C[C@@H]1CC[C@H]2[C@H](COc3ccc(NC(=O)c4cccc(C(F)(F)F)c4)cc3C(=O)N2C)O1 as the molecule, how does the AC50 [1] read?
A: The AC50 was 3.05 µM (active).

Q: Which AC50 [2] does the source give for C[C@H](CO)N1C[C@H](C)[C@@H](CN(C)S(=O)(=O)c2ccccc2)OCCCC[C@H](C)Oc2ccc(NS(=O)(=O)c3ccc(Cl)cc3)cc2C1=O here?
A: The AC50 was 32.2 µM (active).

Q: What about the AC50 [3] of the same molecule?
A: Its AC50 is 49.8 µM (active).

Q: What about the AC50 [4] of the same molecule?
A: Its AC50 is 5.23 µM (active).

Q: Which results are given for Cc1ccc(-c2ccc3c(c2)O[C@@H](CN(C)C(=O)C2CCCCC2)[C@H](C)CN([C@H](C)CO)S3(=O)=O)cc1?
A: AC50 [5]: 22 µM (active); AC50 [6]: 20.7 µM (active); AC50 [7]: 15 µM (active); AC50 [8]: 3.07 µM (active)

Q: Which IC50 [9] does the source give for Cc1sc(NC(=O)CN2CCOCC2)nc1-c1ccc2c(c1)CCN2S(=O)(=O)c1ccccc1 here?
A: Its IC50 is 8.52 µM (active).

Q: Which AC50 [10] does the source give for CC1=C(Nc2ccc(Cl)cc2)C(=O)c2ccccc2C1=O here?
A: Its AC50 is 0.802 µM (active).

Q: And the AC50 [11]?
A: Its AC50 is 40.7 µM (active).

Q: And the AC50 [12]?
A: Its AC50 is > 70 µM (inactive).

Q: For CO[C@H]1CN(C)C(=O)c2cc(NC(=O)c3ccc(-c4ccccc4)cc3)ccc2OC[C@@H](C)NC[C@@H]1C, which AC50 [2] is on record?
A: Its AC50 is 44.6 µM (active).

Q: And the AC50 [4]?
A: Its AC50 is 22.6 µM (active).

Q: What about the AC50 [13] of the same molecule?
A: Its AC50 is 58.4 µM (active).

Q: For OC[C@H]1[C@H](c2ccc(-c3ccccc3)cc2)[C@@H]2CN(Cc3cncnc3)CCCCN12, which AC50 [14] is on record?
A: Its AC50 is 0.185 µM (active).

Q: Which AC50 [2] does the source give for COc1ccc(NC(=O)N2CCCCN3[C@@H](CO)[C@@H](c4ccc(C5=CCCC5)cc4)[C@@H]3C2)cc1 here?
A: Its AC50 is 41.6 µM (active).

Q: And the AC50 [3]?
A: Its AC50 is 52.9 µM (active).

Q: And the AC50 [13]?
A: Its AC50 is 64.1 µM (active).

Q: For COc1cc(/C=N/NC(=O)COc2ccc(Cl)cc2)ccc1OS(=O)(=O)c1ccc(C)cc1, which IC50 [15] is on record?
A: The IC50 was > 94.1 µM (inactive).

Q: What about the IC50 [16] of the same molecule?
A: Its IC50 is > 69.5 µM (inactive).

Q: And the IC50 [17]?
A: Its IC50 is > 69.5 µM (inactive).
